Data set [1] can be described thus: Solubility / reprecipitation of estramustine derivative with cyclodextrins (general statements). Format: physicochemical. As to conditions: for effects of reprecipitation induced by cations: calcium or other cations.
For data set [2] the following is noted: oral administration; interaction with foods and drinks; cited from earlier work.
A short description of data set [3]: Reprecipitation of EPS by calcium chloride in pH 3.1 buffer, EPS in solution assayed by UV spectroscopy (Example 1). Format: physicochemical. As to conditions: 640 mcg/ml EPS, pH 3.1 HCl/KCl buffer (I=0.1). How it is done: To a solution in a pH 3.1 HCl/KCl buffer (I=0.1), containing 640 mcg/ml of Estramustine-17-phosphate disodium salt (EPS), were added appropriate quantities of calcium chloride in order to have drug:salt molar ratios in the range from 1:0 to 1:1. The samples were filtered and the quantity of Estramustine-17-phosphate sodium salt in solution was assayed by UV spectroscopy.

Data set [4] is described as follows: Solubilization by cyclodextrins of previously formed precipitate of EPS with calcium, pH 3.1, UV spectroscopy (Examples 5-7). Format: physicochemical. The following applies: about 1 mg/ml EPS, CD added to preformed precipitate. The protocol:
The samples were filtered and the quantity of Estramustine disodium salt in solution was assayed by UV spectroscopy.
(§1) The samples were filtered and the quantity of Estramustine-17-phosphate disodium salt in solution was assayed by UV spectroscopy.
as §1

A short description of data set [5]: EPS in solution after addition of calcium chloride to solution of EPS and cyclodextrin, pH 3.1, UV spectroscopy (Examples 2-4). As to conditions: about 1 mg/ml EPS. Format: physicochemical. How it is done: as §1, §1, §1

Structures can show the parent of a compound that is named as a salt.

With `C[C@]12CC[C@@H]3c4ccc(OC(=O)N(CCCl)CCCl)cc4CC[C@H]3[C@@H]1CC[C@@H]2OP(=O)(O)O` [Estramustine-17-phosphate], in data set [1] (with cyclodextrins), the “redissolution of already formed precipitate with calcium” value is on record as “redissolve the already formed precipitate” and the “effects of reprecipitation induced by cations” value is reported as “avoid the reprecipitation”. In addition, the “passage in solution of the drug in the presence of calcium ions” value in data set [1] (with cyclodextrins, calcium ions in dissolution medium) is reported as “permit the passage in solution of the drug”.
Regarding `C[C@H](N)C(=O)O[C@H]1CC[C@H]2[C@@H]3CCc4cc(OC(=O)N(CCCl)CCCl)ccc4[C@H]3CC[C@]12C` [Estramustine-17-L-alaninate], in data set [1] (with cyclodextrins), the “effect of reprecipitation by anionic species” value is reported as “avoiding any effect of reprecipitation by anionic species”. In data set [2], the “reprecipitation of the drug” value was “induced by anionic species, such as chlorine ions”.
On to `C[C@]12CC[C@@H]3c4ccc(OC(=O)N(CCCl)CCCl)cc4CC[C@H]3[C@@H]1CC[C@@H]2OP(=O)(O)O` [EPS, Estramustine-17-phosphate disodium salt], for which the EPS in solution is 100% in data set [3] (EPS:CaCl2 molar ratio 1:0); 42% in data set [3] (EPS:CaCl2 molar ratio 1:0.25); 21% in data set [3] (EPS:CaCl2 molar ratio 1:0.5); 14% in data set [3] (EPS:CaCl2 molar ratio 1:1); 16% in data set [4] (EPS:CaCl2:CD molar ratio 1:1:0 (no CD)); 4% in data set [4] (EPS:CaCl2:CD molar ratio 1:2:0 (no CD)). The EPS in solution in data set [4] (EPS:CaCl2:CD molar ratio 1:4:0 (no CD)) is listed as 4%; in data set [5] (EPS:CD:CaCl2 molar ratio 1:0:1 (no CD)), 16%; in data set [5] (EPS:CD:CaCl2 molar ratio 1:0:2 (no CD)) it was 4%; in data set [5] (EPS:CD:CaCl2 molar ratio 1:0:4 (no CD)) it was 4%. For the same compound, in data set [1] (when mixed with cyclodextrins), the “solubility of the drug itself” value is given as “does not change in a significant way”. Further, in data set [1] (with cyclodextrins, disodium salt), the “effects of reprecipitation induced by cations” value was “quite negligible”. Also, the “reprecipitation of the drug” value in data set [2] was “induced by cations and in particular by calcium ions”.

The values are drawn from patent publication US5712260A, “Estramustine formulations with improved pharmaceutical properties” (Pharmacia AB, priority 1994, dated 1998).
